According to patent US5166379A, “Synthesis of compounds with biological activity, and methods of use” (Harbor Branch Oceanographic Institution, Inc., priority 1990, dated 1992):
Values after ≈ are worked out from the molar mass of the structure shown. Values joined by “and” are separate entries in the source; they are usually repeats but may differ in a detail not shown here. Equal entries are not always repeated. Where two headings read alike, the source gives them in different places.

Columns and labels:
[1] = tested on: murine splenocyte suspensions (BALB/c and C57BL/6J mice); experiment: Mixed Lymphocyte Reaction (MLR); assay type: cell-based
Description: I. Mixed Lymphocyte Reaction
1. Murine splenocyte suspensions were prepared separately from BALB/c and C57BL/6J mice. […] The cell concentrations were adjusted to 2.5×10^6 cells/ml. Aliquots of each cell population were removed to separate tubes, and the remaining two cell suspensions combined to one tube.
(§1) 2. Serial, log10 dilutions of the pure compound were made in absolute ethanol, and 10 μl of each dilution was added to wells of microtiter test plates, and allowed to dry.
3. A volume of 0.2 ml of the combined splenocyte suspensions was added to triplicate test wells. Positive control wells received combined splenocyte suspensions in the absence of the test compounds. Negative control wells consisted of separate (not mixed) splenocyte suspensions cultured in the absence of the test compounds.
4. Plates were incubated in 5% CO2 at 37° C. for 86 hours.
5. A volume of 0.05 ml of ^3 H-thymidine (20 μCi/ml) was added to each well, and the plates were incubated in 5% CO2 at 37° C. for an additional 5 hours.
6. The contents of each well of the microtiter plates were harvested onto glass fiber filter strips, and the resulting filter discs placed in scintillation vials to which 2.0 ml of scintillation fluid was added.
7. The amount of incorporated ^3 H-thymidine was determined by counting the vials in a liquid scintillation counter.
8. Triplicate counts were averaged, and the data reported as a percentage of the positive control.

[2] = Lymphocyte Viability Assay (LCV); assay type: cell-based, murine; conditions: mouse, splenocytes, read-out: % LCV (percentage of positive control)
Description: (§2) II. Lymphocyte Viability Assay
(§3) 1. Compounds were similarly tested in parallel with the MLR to determine their toxic effects on lymphoid cells using the lymphocyte viability assay (LCV).
as §1
(§4) 3. Murine splenocyte suspensions were prepared from BALB/c mice. […] The cell concentrations were adjusted to 2.5×10^6 cells/ml.
(§5) 4. A volume of 0.2 ml of the splenocyte suspension was added to replicate test wells. Positive control wells received splenocyte suspensions in the absence of the test compounds.
(§6) 5. Plates were incubated at 37° C. for 86 hours. At the end of the incubation period, a volume of 75 μl of a 2.0 mg/ml solution of MTT was added to each well, and the plates were returned to the incubator for an additional 5 hours.
(§7) 6. The supernatants from each microwell were then removed, and a volume of 200 μl of isopropanol was added and the contents mixed.
(§8) 7. Values were obtained by comparing the optical densities (determined at 570 and 650 nm) of wells containing the test compounds with those of wells containing cells and medium only (positive control). The results are expressed as a percentage of the positive control.
(§9) 8. Replicate counts were averaged, and the data reported as a percentage of the positive control. An LCV value of less than 60% of the positive control is an indication of cytotoxicity of the test compounds for lymphoid cells.

[3] = tested on: lymphoid cells (murine BALB/c splenocytes); experiment: Lymphocyte Viability Assay (LCV); assay type: cell-based
Description: as §2, §3, §1, §4, §5, §6, §7, §8, §9

[4] = tested on: graft vs host reaction in CB6F1 mice grafted with BALB/c splenocytes; experiment: Graft vs. Host (GVHR) in vivo activity
Description: III. Graft vs. Host (GVHR) In Vivo Activity
1. Donor mice (BALB/c) were sacrificed, spleens removed, and spleen cell suspensions prepared in tissue culture medium.
2. The above splenocyte suspension was adjusted to 10.0×10^7 cells/ml.
3. Mice were treated with varying dosages of the test compound. […] Treatment consisted of intraperitoneal injections, daily for 7 days. Dosages were calculated on a mg per kg body weight basis.
4. On day 1 of the first treatment regimen, recipient mice (CB6) were injected intraperitoneally with 0.50 ml (50.0×10^6) of the donor (BALB/c) splenocyte suspension.
5. Controls consisted of the following:
POS--mice receiving BALB/c splenocytes (Positive Control)
SYN--mice receiving CB6 splenocytes (Syngeneic Control)
CYP--mice receiving Cyclophosphamide (100 mg/kg) and BALB/c splenocytes
6. At the end of five days, recipient mice were sacrificed, weighed, and spleens removed and weighed.
7. A spleen index of 1.0 was assigned to the mean spleen weights (adjusted to body weight) of the SYN controls. The spleen index of treated mice was determined by comparing the spleen weights of those mice with that of the […]. […] As a general rule, a spleen index of less than the positive control is indicative of an immunosuppressive (ID) compound.
^a CB6F1 mice (5 mice per group) were grafted with 5 ×
10^7 BALB/c spelnocytes, i.p. on Day 0. Groups were injected, ii.p.,
with drug (or vehicle) on Days 1-6. Positive designates grafted mice
receiving vehicle alone.
^b Number of surviving mice at end of experiment.
(Stimulation Index of Syngeneic group (CB6F1 ->CB6F1) = 100

P388 cells = experiment: Antiproliferative effects against P388 cells (antitumor, MTT); assay type: cell-based; conditions: Mus musculus, P388, 48 hour exposure
Description: IV. Antitumor Methodology
To assess the antiproliferative effects against P388 cells, 200 μl cultures (96-well tissue culture plates, Nunc, Denmark) were established at 1×10^5 cells/ml in drug-free medium or medium containing the pure compounds/crude extracts at a final dilution or 1:500 and at various concentrations. Solvent for all dilutions was methanol, which was removed from plates under vacuum. All experimental cultures were initiated in media containing Gentamicin sulfate (50 μg/ml; Schering Corporation, Kenilworth, NJ).
To quantitate the effects of pure compounds/crude extracts on cell proliferation, 75 μl of warm growth medium containing 5 mg/ml MTT was added to each well, cultures were returned to the incubator, and were left undisturbed for 90 minutes. To spectrophotometrically quantitate formation of reduced formazan, plates were centrifuged (900×g, 5 minutes), culture fluids removed by aspiration, and 200 μl of acidified isopropanol (2 ml concentrated HCl/liter isopropanol) added per well. The absorbance of the resulting solutions were measured at 570 nm with a plate reader (MR700 Microplate Reader, Dynatech Laboratories, Chantilly, VA).

[5] = Mus musculus, Splenocyte, 0.05 μg/ml, read-out: % MLR (percentage of positive control)
[6] = Mus musculus, Splenocyte, 0.5 μg/ml, read-out: % MLR (percentage of positive control)
[7] = Mus musculus, Splenocyte, 5.0 μg/ml, read-out: % MLR (percentage of positive control)
[8] = Mus musculus, Splenocyte, 50 μg/ml, read-out: % MLR (percentage of positive control)

Compound	activity at 0.05 µg/mL [1, 5]	activity at 0.5 µg/mL [1, 6]	activity at 5 µg/mL [1, 7]	activity at 50 µg/mL [1, 8]	viability ([2]; 0.05 μg/ml)	viability ([2]; 0.5 μg/ml)	viability ([2]; 5.0 μg/ml)	viability ([2]; 50 μg/ml)	further results
C#CC(O)C=CC=CCCCC (centres unmarked) [CH3 (CH2)3 CH=CH--CH=CH--CHOHC≡CH]	134%	0%	0%	0%	103%	72%	14%	29%	–
C#CC(O)CCCC (centres unmarked) [CH3 (CH2)3 CHOHC≡CH]	89%	136%	47%	0%	117%	116%	0%	61%	–
CCCCCC=CC(O)C#CCCCCCCCC (centres unmarked) [CH3 (CH2)4 CH=CH--CHOH--C≡C--(CH2)7 CH3]	–	–	–	–	–	–	–	–	% MLR (percentage of positive control) ([1]; 0.05 μg/ml): 127%; % MLR (percentage of positive control) ([1]; 0.2 μg/ml): 135%; % MLR (percentage of positive control) ([1]; 0.8 μg/ml): 122%; % MLR (percentage of positive control) ([1]; 3.1 μg/ml): 64%; % MLR (percentage of positive control) ([1]; 12.5 μg/ml): 0%; % MLR (percentage of positive control) ([1]; 50 μg/ml): 0%; % LCV (percentage of positive control) ([3]; 0.05 μg/ml): 128%; % LCV (percentage of positive control) ([3]; 0.2 μg/ml): 119%; % LCV (percentage of positive control) ([3]; 0.8 μg/ml): 105%; % LCV (percentage of positive control) ([3]; 3.1 μg/ml): 86%; % LCV (percentage of positive control) ([3]; 12.5 μg/ml): 28%; % LCV (percentage of positive control) ([3]; 50 μg/ml): 14%
C#CC(O)CCC=CCCCCC (centres unmarked) [CH3 (CH2)4 CH=CHCH2 CH2 CHOHC≡CH]	137%	122%	110%	50%	65%	57%	45%	51%	% Suppression ([4]; 50.0 mg/kg, i.p.): 35%; Stim. Index (spleen index) ([4]; 50.0 mg/kg, i.p.): 2.09; % Suppression ([4]; 100 mg/kg, i.p.): 59%; Stim. Index (spleen index) ([4]; 100 mg/kg, i.p.): 1.69; % Suppression ([4]; 150.0 mg/kg, i.p.): 28%; Stim. Index (spleen index) ([4]; 150.0 mg/kg, i.p.): 2.21; % Suppression ([4]; 200 mg/kg, i.p.): 57%; Stim. Index (spleen index) ([4]; 200 mg/kg, i.p.): 1.72; suppression of the GVHR (splenomegaly response), in words ([4]; mouse, in vivo): demonstrated suppressive activity in the GVHR at all dosages tested; toxicity as measured by survival of treated recipients, in words ([4]; mouse, in vivo): no associated toxicity as measured by survival of treated recipients
C#CC(O)CCCCCCC (centres unmarked) [CH3 (CH2)6 CHOHC≡CH]	117%	130%	131%	108%	72%	85%	70%	61%	–
CCCCCCCCCCCCCCCCO [CH3 (CH2)14 CH2 OH]	136%	–	–	0%	70%	–	–	0%	activity at 0.2 µg/mL ([1]; Mus musculus, Splenocyte, 0.2 μg/ml, read-out: % MLR (percentage of positive control)): 128%; activity at 0.8 µg/mL ([1]; Mus musculus, Splenocyte, 0.8 μg/ml, read-out: % MLR (percentage of positive control)): 127%; activity at 3.1 µg/mL ([1]; Mus musculus, Splenocyte, 3.1 μg/ml, read-out: % MLR (percentage of positive control)): 137%; activity at 12.5 µg/mL ([1]; Mus musculus, Splenocyte, 12.5 μg/ml, read-out: % MLR (percentage of positive control)): 0%; viability ([2]; 0.2 μg/ml): 86%; viability ([2]; 0.8 μg/ml): 37%; viability ([2]; 3.1 μg/ml): 98%; viability ([2]; 12.5 μg/ml): 0%; IC50 (P388 cells): 9.3 µg/mL (≈ 38.4 µM)
C#CC(O)CCCCCCCCCCCCCCC (centres unmarked) [CH3 (CH2)14 CHOHC≡CH]	100%	0%	0%	0%	105%	47%	36%	10%	–
C#CC(O)C=CCCCCCCCCCCCCCCCC (centres unmarked) [CH3 (CH2)15 CH=CHCOHC≡CH]	–	–	–	–	–	–	–	–	% MLR (percentage of positive control) ([1]; 0.05 μg/ml): 13%; % MLR (percentage of positive control) ([1]; 0.5 μg/ml): 0%; % MLR (percentage of positive control) ([1]; 5.0 μg/ml): 0%; % MLR (percentage of positive control) ([1]; 50 μg/ml): 0%; % LCV (percentage of positive control) ([3]; 0.05 μg/ml): 78%; % LCV (percentage of positive control) ([3]; 0.5 μg/ml): 78%; % LCV (percentage of positive control) ([3]; 5.0 μg/ml): 17%; % LCV (percentage of positive control) ([3]; 50 μg/ml): 13%
C=CC(O)CCCCCCCCCCCCCCCC (centres unmarked) [CH3 (CH2)15 CHOHCH=CH2]	99%	74%	0%	0%	80%	80%	2%	5%	–
C#CC(O)CCCCCCCCCCCCCCCC (centres unmarked) [CH3 (CH2)15 CHOHC≡CH]	0%	0%	0%	0%	49%	22%	24%	22%	activity at 0.005 µg/mL ([1]; Mus musculus, Splenocyte, 0.005 μg/ml, read-out: % MLR (percentage of positive control)): 0%; viability ([2]; 0.005 μg/ml): 65%; % Suppression ([4]; 50.0 mg/kg, i.p.): 49%; % Suppression ([4]; 100 mg/kg, i.p.): 0%; % Suppression ([4]; 150.0 mg/kg, i.p.): 4%; % Suppression ([4]; 200 mg/kg, i.p.): 0%
C#CC(=O)CCCCCCCCCCCCCCCC [CH3 (CH2)15 COC≡CH]	114%	7%	0%	0%	91%	89%	47%	34%	–
O=P1(N(CCCl)CCCl)NCCCO1 (centres unmarked) [Cyclophosphamide, reference compound]	–	–	–	–	–	–	–	–	% Suppression ([4]; 100 mg/kg, i.p.): 160% and 142% and 132%; # Mice (number of surviving mice at end of experiment) ([4]; 100 mg/kg, i.p., 5 mice per group): 5 mice; suppression of the GVHR (splenomegaly response), in words ([4]; mouse, in vivo): displayed the characteristic suppression of the splenomegaly response
